# Source: ChEMBL document CHEMBL2046380, “Synthesis and structure-activity relationship of disubstituted benzamides as a novel class of antimalarial agents” (Bioorg Med Chem Lett, 2012)
# pEC50: −log10 of the molar value.
# Assays:
# BJ = test: Cytotoxicity against human BJ cells after 72 hrs by […] CellTiterGlo reagent assay; type: cell-based
# Raji = test: Cytotoxicity against human Raji cells after 72 hrs by […] CellTiterGlo reagent assay; type: cell-based
# Plasmodium falciparum [1] = test: Antimalarial activity against chloroquine-sensitive Plasmodium falciparum 3D7 incubated for 72 hrs by DNA staining based MAR3D7 growth inhibition assay; type: functional, organism-based; conditions: 3D7, 72 h
# HepG2 = test: Cytotoxicity against human HepG2 cells after 72 hrs by […] CellTiterGlo reagent assay; type: cell-based; conditions: HepG2, 72 h
# HEK293 = test: Cytotoxicity against human HEK293 cells after 72 hrs by […] CellTiterGlo reagent assay; type: cell-based; conditions: HEK293, 72 h
# Plasmodium falciparum [2] = test: Antimalarial activity against […] incubated for 72 hrs by DNA staining based MARK1 growth inhibition assay; type: functional, organism-based
SMILES,pEC50 (BJ),pEC50 (Raji),pEC50 (Plasmodium falciparum [1]),pEC50 (HepG2),pEC50 (HEK293),pEC50 (Plasmodium falciparum [2])
CCOC(=O)CCCCCOc1cccc(CN(C(=O)c2ccc(-c3cccc(Br)c3)cc2)C(C)C)c1,< 4.58,< 4.58,< 4.82,< 4.58,< 4.58,< 4.82
CCCN(Cc1ccccc1OCCCCCC(=O)O)C(=O)c1ccc(-c2ccc3c(c2)OCO3)cc1,< 4.58,< 4.58,< 4.82,< 4.58,< 4.58,< 4.82
CC(C)(C)OC(=O)NCC(OC(=O)C(O)CO)c1ccc2c(c1)OCO2 (stereo unspecified),< 4.89,< 4.89,< 5.12,< 4.89,< 4.89,< 5.12
CCOC(=O)CCCCCOc1cccc(CN(C(=O)c2ccc(-c3cccc(O)c3)cc2)C(C)C)c1,< 4.58,< 4.58,< 4.82,< 4.58,< 4.58,< 4.82
CCOC(=O)CCCCCOc1cccc(CN(C(=O)c2ccc(-c3ccoc3)cc2)C(C)C)c1,< 4.58,< 4.58,< 4.82,< 4.58,< 4.58,< 4.82
CCOC(=O)CCCCCOc1cccc(CN(C(=O)c2ccc(-c3cccc(OC)c3)cc2)C(C)C)c1,< 4.68,< 4.68,< 4.93,< 4.68,< 4.68,< 4.93
CC(C)N(Cc1cccc(OCCCCCC(=O)O)c1)C(=O)c1ccc(-c2cccc(S(C)(=O)=O)c2)cc1,< 4.58,< 4.58,< 4.82,< 4.58,< 4.58,< 4.82
C=CCCN(CCc1ccc(OC)c(OC)c1)C(=O)CC(C)=O,< 4.89,< 4.89,< 5.12,< 4.89,< 4.89,< 5.12
CCOC(=O)CCCCCOc1cccc(CN(C(=O)c2ccc(-c3ccc4c(c3)OCO4)cc2)C(C)C)c1,< 4.65,< 4.65,< 4.90,< 4.65,< 4.65,< 4.90
CC(C)N(Cc1cccc(OCCCCCC(=O)O)c1)C(=O)c1ccc(-c2ccc3c(c2)OCCO3)cc1,< 4.66,< 4.66,< 4.92,< 4.66,< 4.66,< 4.92
CCCN(Cc1ccc(OCCCCCC(=O)OCC)cc1)C(=O)c1ccc(-c2ccc3c(c2)OCO3)cc1,< 4.58,< 4.58,< 4.82,< 4.58,< 4.58,< 4.82
CCOC(=O)CCCCCOc1ccccc1C=O,< 4.58,< 4.58,< 4.82,< 4.58,< 4.58,< 4.82
O=C(O)c1cc(-c2ccco2)nc2ccccc12,< 4.58,< 4.58,< 4.82,< 4.58,< 4.58,< 4.82
COc1cccc(-c2ccc(C(=O)N(Cc3cccc(OCCCCCC(=O)O)c3)C(C)C)cc2)c1,< 4.68,< 4.68,< 4.94,< 4.58,< 4.68,< 4.94
COC(=O)CCCC1=NCCc2cc(OC)c(OC)cc21,< 4.89,< 4.89,< 5.12,< 4.89,< 4.89,< 5.12
C=CCCC1=NCC(OC(C)=O)c2cc(OC)c(OC)cc21 (stereo unspecified),< 4.89,< 4.89,< 5.12,< 4.89,< 4.89,< 5.12
CCOC(OCC)C(=O)NCCc1ccc(OC)c(OC)c1,< 4.89,< 4.89,< 5.12,< 4.89,< 4.89,< 5.12
C=CCCC(=O)NC[C@H](O)c1ccc2c(c1)OCO2,< 4.89,< 4.89,< 5.12,< 4.89,< 4.89,< 5.12
COc1ccc(CCNC(=O)CCCCC(C)=O)cc1OC,< 4.89,< 4.89,< 5.12,< 4.89,< 4.89,< 5.12
CCOC(=O)CCCCCOc1cccc(CN(C(=O)c2ccc(-c3cccnc3)cc2)C(C)C)c1,< 4.58,< 4.58,< 4.82,< 4.58,< 4.58,< 4.82
CCOC(=O)CCCCCOc1cccc(CN(C(=O)c2ccc(-c3cccc(-c4nnc(C)o4)c3)cc2)C(C)C)c1,< 4.58,< 4.58,< 4.82,< 4.58,< 4.58,< 4.82
